Source: patent US10004697B2, “In vivo sperm selection for treating male infertility” (M Pharmaceutical USA Inc., priority 2016, dated 2018)

System: women
Assay: Topical menthol applied to the vulva: increase of vaginal lubrication in women
Assay type: in vivo, human
Details: applied to the vulva (including the clitoris)
Excerpt: Abnormal sperm quality in combination with inadequate vaginal lubrication can cause infertility. The menthol-stimulated vaginal plasma transudate 30 that is generated by use of the inventive method compensates for lubrication insufficiency that may be present in the female sexual partner of the infertile male. […] Since most infertility is a combination of female and male factors, the production of this vaginal transudate 30 can aid conception rates of both infertile males and females. […] Therefore the sperm, even if they somehow are able to be capacitated, have little or no protective and nourishing substrate in which they can swim up through the external os 24 and into the cervical canal 21. The odds of fertilization are thus extremely low.

Structure (SMILES): CC1CCC(C(C)C)C(O)C1 (centres unmarked) [menthol]
- women in whom lubrication is increased (all women): 80%
- women in whom lubrication is increased (women over 35): 90%
